Experimental data taken from paper PMC3195688, “Glucose-6-Phosphate Dehydrogenase Regulation in Anoxia Tolerance of the Freshwater Crayfish Orconectes virilis” (Enzyme Research, 2011).
Where two headings read alike, the source gives them in different places.

Tested on: T1, Glucose-6-phosphate dehydrogenase (G6PDH)
T1 construct: gene G6PD; native enzyme in crude hepatopancreas extract of aerobic control animals, not purified; mixture of low- and high-phosphate forms
Assay: NADPH production at […] nm, microplate reader
Format: biochemical, Faxonius virilis
Details: untreated extract of aerobic control animals, 50 mM imidazole, pH 7.0, 22 °C, read-out: Control K m

Row | SMILES | Km (NADP+ constant) [µM] | Km (G6P constant) [µM]
1 | O=P(O)(O)OC[C@H]1OC(O)[C@H](O)[C@@H](O)[C@@H]1O (some centres unmarked) [G6P] | 130 ± 16 | 
2 | NC(=O)c1ccc[n+]([C@@H]2O[C@H](COP(=O)(O)OP(=O)(O)OC[C@H]3O[C@@H](n4cnc5c(N)ncnc54)[C@H](OP(=O)(O)O)[C@@H]3O)[C@@H](O)[C@H]2O)c1 [NADP^+] |  | 150 ± 8
